Data taken from PubChem BioAssay (NCI).
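How tested: cells in 96-well plates exposed to compound for 48 hours at five concentrations. At the GI50, growth is halved. Definition used: TGI = concentration required for complete inhibition of growth.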

Key:
Assay in all cases: inhibition of tumour cell growth, NCI panel, 48 h
A549 NSCLC = test system: A549 NSCLC
ACHN renal = test system: ACHN renal
BT-549 breast = test system: BT-549 breast
CAKI-1 renal = test system: CAKI-1 renal
CCRF-CEM leukemia = test system: CCRF-CEM leukemia
COLO 205 colon = test system: COLO 205 colon
DU-145 prostate = test system: DU-145 prostate
EKVX NSCLC = test system: EKVX NSCLC
HCC-2998 colon = test system: HCC-2998 colon
HCT-15 colon = test system: HCT-15 colon
HL-60(TB) leukemia = test system: HL-60(TB) leukemia
HOP-62 NSCLC = test system: HOP-62 NSCLC
HS 578T breast = test system: HS 578T breast
IGROV1 ovarian = test system: IGROV1 ovarian
LOX IMVI melanoma = test system: LOX IMVI melanoma
M14 melanoma = test system: M14 melanoma
MALME-3M melanoma = test system: MALME-3M melanoma
MDA-MB-231 breast = test system: MDA-MB-231 breast
MOLT-4 leukemia = test system: MOLT-4 leukemia
NCI-H23 lung = test system: NCI-H23 lung
NCI-H460 lung = test system: NCI-H460 lung
NCI-H522 lung = test system: NCI-H522 lung
NCI/ADR-RES ovarian = test system: NCI/ADR-RES ovarian
OVCAR-4 ovarian = test system: OVCAR-4 ovarian
OVCAR-5 ovarian = test system: OVCAR-5 ovarian
OVCAR-8 ovarian = test system: OVCAR-8 ovarian
RPMI-8226 leukemia = test system: RPMI-8226 leukemia
RXF 393 renal = test system: RXF 393 renal
SF-295 CNS = test system: SF-295 CNS
SK-MEL-28 melanoma = test system: SK-MEL-28 melanoma
SK-MEL-5 melanoma = test system: SK-MEL-5 melanoma
SK-OV-3 ovarian = test system: SK-OV-3 ovarian
SNB-75 CNS = test system: SNB-75 CNS
SW-620 colon = test system: SW-620 colon
TK-10 renal = test system: TK-10 renal
UO-31 renal = test system: UO-31 renal
786-0 renal = test system: 786-0 renal
A498 renal = test system: A498 renal
HCT-116 colon = test system: HCT-116 colon
HOP-92 NSCLC = test system: HOP-92 NSCLC
HT29 colon = test system: HT29 colon
K-562 leukemia = test system: K-562 leukemia
KM12 colon = test system: KM12 colon
MCF7 breast = test system: MCF7 breast
MDA-MB-435 = test system: MDA-MB-435
NCI-H226 lung = test system: NCI-H226 lung
OVCAR-3 ovarian = test system: OVCAR-3 ovarian
PC-3 prostate = test system: PC-3 prostate
SF-268 CNS = test system: SF-268 CNS
SF-539 CNS = test system: SF-539 CNS
SK-MEL-2 melanoma = test system: SK-MEL-2 melanoma
SN12C renal = test system: SN12C renal
SNB-19 CNS = test system: SNB-19 CNS
T-47D breast = test system: T-47D breast
U251 CNS = test system: U251 CNS
UACC-257 melanoma = test system: UACC-257 melanoma
UACC-62 melanoma = test system: UACC-62 melanoma

Molecule `Cc1cn(S(=O)(=O)c2ccccc2)c2c(OCc3ccccc3)cc(NC(=O)c3cc4cc([N+](=O)[O-])ccc4s3)cc12` has a TGI (A549 NSCLC) greater than 100 µM, a TGI (ACHN renal) greater than 100 µM and a TGI (BT-549 breast) greater than 100 µM. The TGI (CAKI-1 renal) was greater than 100 µM, the TGI (CCRF-CEM leukemia) was greater than 100 µM and the TGI (COLO 205 colon) was greater than 100 µM. It also gave a TGI (DU-145 prostate) greater than 100 µM, a TGI (EKVX NSCLC) greater than 100 µM and a TGI (HCC-2998 colon) greater than 100 µM. The TGI (HCT-15 colon) was greater than 100 µM, the TGI (HL-60(TB) leukemia) was greater than 100 µM and the TGI (HOP-62 NSCLC) was greater than 100 µM. It also gave a TGI (HS 578T breast) greater than 100 µM, a TGI (IGROV1 ovarian) greater than 100 µM and a TGI (LOX IMVI melanoma) greater than 100 µM. For the same molecule, the TGI (M14 melanoma) was greater than 100 µM, the TGI (MALME-3M melanoma) was greater than 100 µM and the TGI (MDA-MB-231 breast) was greater than 100 µM. The TGI (MOLT-4 leukemia) was greater than 100 µM, the TGI (NCI-H23 lung) was greater than 100 µM and the TGI (NCI-H460 lung) was greater than 100 µM. The TGI (NCI-H522 lung) was greater than 100 µM, the TGI (NCI/ADR-RES ovarian) was greater than 100 µM and the TGI (OVCAR-4 ovarian) was greater than 100 µM. For the same molecule, the TGI (OVCAR-5 ovarian) was greater than 100 µM, the TGI (OVCAR-8 ovarian) was greater than 100 µM and the TGI (RPMI-8226 leukemia) was greater than 100 µM. The TGI (RXF 393 renal) was greater than 100 µM, the TGI (SF-295 CNS) was greater than 100 µM and the TGI (SK-MEL-28 melanoma) was greater than 100 µM. For the same molecule, the TGI (SK-MEL-5 melanoma) was greater than 100 µM, the TGI (SK-OV-3 ovarian) was greater than 100 µM and the TGI (SNB-75 CNS) was greater than 100 µM. It also gave a TGI (SW-620 colon) greater than 100 µM, a TGI (TK-10 renal) greater than 100 µM and a TGI (UO-31 renal) greater than 100 µM.

`N#CC1=C(N)NC(=O)NC12Nc1ccccc1N2` gave a GI50 (786-0 renal) greater than 100 µM, a TGI (786-0 renal) greater than 100 µM and a GI50 (A498 renal) greater than 100 µM. For the same molecule, the TGI (A498 renal) was greater than 100 µM, the GI50 (A549 NSCLC) was greater than 100 µM and the TGI (A549 NSCLC) was greater than 100 µM. It also gave a GI50 (ACHN renal) greater than 100 µM, a TGI (ACHN renal) greater than 100 µM and a GI50 (BT-549 breast) greater than 100 µM. The TGI (BT-549 breast) was greater than 100 µM, the GI50 (CAKI-1 renal) was greater than 100 µM and the TGI (CAKI-1 renal) was greater than 100 µM. The GI50 (COLO 205 colon) was greater than 100 µM, the TGI (COLO 205 colon) was greater than 100 µM and the GI50 (DU-145 prostate) was greater than 100 µM. The TGI (DU-145 prostate) was greater than 100 µM, the GI50 (EKVX NSCLC) was greater than 100 µM and the TGI (EKVX NSCLC) was greater than 100 µM. The GI50 (HCC-2998 colon) was greater than 100 µM, the TGI (HCC-2998 colon) was greater than 100 µM and the GI50 (HCT-116 colon) was greater than 100 µM. The TGI (HCT-116 colon) was greater than 100 µM, the GI50 (HCT-15 colon) was greater than 100 µM and the TGI (HCT-15 colon) was greater than 100 µM. It also gave a GI50 (HOP-62 NSCLC) greater than 100 µM, a TGI (HOP-62 NSCLC) greater than 100 µM and a GI50 (HOP-92 NSCLC) of 31.3 µM. For the same molecule, the TGI (HOP-92 NSCLC) was greater than 100 µM, the GI50 (HS 578T breast) was greater than 100 µM and the TGI (HS 578T breast) was greater than 100 µM. For the same molecule, the GI50 (HT29 colon) was greater than 100 µM, the TGI (HT29 colon) was greater than 100 µM and the GI50 (IGROV1 ovarian) was greater than 100 µM. For the same molecule, the TGI (IGROV1 ovarian) was greater than 100 µM, the GI50 (K-562 leukemia) was greater than 100 µM and the TGI (K-562 leukemia) was greater than 100 µM. It also gave a GI50 (KM12 colon) greater than 100 µM, a TGI (KM12 colon) greater than 100 µM and a GI50 (LOX IMVI melanoma) greater than 100 µM. For the same molecule, the TGI (LOX IMVI melanoma) was greater than 100 µM, the GI50 (M14 melanoma) was greater than 100 µM and the TGI (M14 melanoma) was greater than 100 µM. It also gave a GI50 (MALME-3M melanoma) greater than 100 µM, a TGI (MALME-3M melanoma) greater than 100 µM and a GI50 (MCF7 breast) greater than 100 µM. For the same molecule, the TGI (MCF7 breast) was greater than 100 µM, the GI50 (MDA-MB-231 breast) was greater than 100 µM and the TGI (MDA-MB-231 breast) was greater than 100 µM. For the same molecule, the GI50 (MDA-MB-435) was greater than 100 µM, the TGI (MDA-MB-435) was greater than 100 µM and the GI50 (MOLT-4 leukemia) was greater than 100 µM. It also gave a TGI (MOLT-4 leukemia) greater than 100 µM, a GI50 (NCI-H226 lung) greater than 100 µM and a TGI (NCI-H226 lung) greater than 100 µM. The GI50 (NCI-H23 lung) was greater than 100 µM, the TGI (NCI-H23 lung) was greater than 100 µM and the GI50 (NCI-H460 lung) was greater than 100 µM. The TGI (NCI-H460 lung) was greater than 100 µM, the GI50 (NCI-H522 lung) was greater than 100 µM and the TGI (NCI-H522 lung) was greater than 100 µM. The GI50 (NCI/ADR-RES ovarian) was greater than 100 µM, the TGI (NCI/ADR-RES ovarian) was greater than 100 µM and the GI50 (OVCAR-3 ovarian) was greater than 100 µM. For the same molecule, the TGI (OVCAR-3 ovarian) was greater than 100 µM, the GI50 (OVCAR-4 ovarian) was greater than 100 µM and the TGI (OVCAR-4 ovarian) was greater than 100 µM. It also gave a GI50 (OVCAR-5 ovarian) greater than 100 µM, a TGI (OVCAR-5 ovarian) greater than 100 µM and a GI50 (OVCAR-8 ovarian) greater than 100 µM. The TGI (OVCAR-8 ovarian) was greater than 100 µM, the GI50 (PC-3 prostate) was greater than 100 µM and the TGI (PC-3 prostate) was greater than 100 µM. It also gave a GI50 (RPMI-8226 leukemia) greater than 100 µM, a TGI (RPMI-8226 leukemia) greater than 100 µM and a GI50 (RXF 393 renal) greater than 100 µM. For the same molecule, the TGI (RXF 393 renal) was greater than 100 µM, the GI50 (SF-268 CNS) was greater than 100 µM and the TGI (SF-268 CNS) was greater than 100 µM. For the same molecule, the GI50 (SF-295 CNS) was greater than 100 µM, the TGI (SF-295 CNS) was greater than 100 µM and the GI50 (SF-539 CNS) was greater than 100 µM. For the same molecule, the TGI (SF-539 CNS) was greater than 100 µM, the GI50 (SK-MEL-2 melanoma) was greater than 100 µM and the TGI (SK-MEL-2 melanoma) was greater than 100 µM. For the same molecule, the GI50 (SK-MEL-28 melanoma) was greater than 100 µM, the TGI (SK-MEL-28 melanoma) was greater than 100 µM and the GI50 (SK-MEL-5 melanoma) was greater than 100 µM. It also gave a TGI (SK-MEL-5 melanoma) greater than 100 µM, a GI50 (SK-OV-3 ovarian) greater than 100 µM and a TGI (SK-OV-3 ovarian) greater than 100 µM. The GI50 (SN12C renal) was greater than 100 µM, the TGI (SN12C renal) was greater than 100 µM and the GI50 (SNB-19 CNS) was greater than 100 µM. It also gave a TGI (SNB-19 CNS) greater than 100 µM, a GI50 (SNB-75 CNS) of 45.2 µM and a TGI (SNB-75 CNS) greater than 100 µM. It also gave a GI50 (SW-620 colon) greater than 100 µM, a TGI (SW-620 colon) greater than 100 µM and a GI50 (T-47D breast) greater than 100 µM. It also gave a TGI (T-47D breast) greater than 100 µM, a GI50 (TK-10 renal) greater than 100 µM and a TGI (TK-10 renal) greater than 100 µM. It also gave a GI50 (U251 CNS) greater than 100 µM, a TGI (U251 CNS) greater than 100 µM and a GI50 (UACC-257 melanoma) greater than 100 µM. The TGI (UACC-257 melanoma) was greater than 100 µM, the GI50 (UACC-62 melanoma) was greater than 100 µM and the TGI (UACC-62 melanoma) was greater than 100 µM.
